From ChEMBL document CHEMBL5352461, “Discovery of the novel Benzo[b]thiophene 1,1-dioxide derivatives as a potent STAT3 inhibitor against idiopathic pulmonary fibrosis” (Eur J Med Chem, 2023)
pIC50: −log10 of the molar value. Activity calls are given as the source filed them.

Columns and labels:
Mus musculus [1] = assay: Antifibrotic activity against bleomycin-induced pulmonary fibrosis C57BL/6 mouse model assessed as reduction in alveolar septa thickness at 60 mg/kg, ip administered for 20 days and measured on 21 day; format: functional, organism-based
Mus musculus [2] = species on record: Mus musculus; assay: Antifibrotic activity against bleomycin-induced C57BL/6 mouse lung fibrosis model assessed as reduction in CD4-CD69+ T cell in lung at low dose incubated for 30 mins by flow cytometry analysis ( Rvb = 6.54%); format: functional; design: scale not given: the % may be the effect or the level left; settings: 0.5 h
A549 [3] = assay: Inhibition of epithelial-mesenchymal transition in TGF-beta1-induced human A549 cells assessed as effect on E-cadherin by measuring fluorescence intensity at 200 nM incubated for 24 hrs by immunofluorescence assays; format: functional, cell-based
NIH3T3 [4] = assay: Antifibrotic activity in TGF-beta1-induced mouse NIH3T3 cells assessed as inhibition of collagen-1 expression at 50 nM incubated for 24 hrs by Western blot analysis; format: functional, cell-based
Mus musculus [5] = species on record: Mus musculus; assay: Antifibrotic activity against bleomycin-induced C57BL/6 mouse lung fibrosis model assessed as reduction in CD11c+MHC II+ in dendritic cells in lung at high dose incubated for 30 mins by flow cytometry analysis ( Rvb = 23.67 %); format: functional; design: scale not given: the % may be the effect or the level left; settings: 0.5 h
A549 [6] = assay: Induction of morphological changes in TGF-beta1 induced human A549 cells assessed as appearance of spindle shape cells at 200 nM measured for 24 hrs by phase contrast microscopy analysis; format: functional, cell-based
Mus musculus [7] = species on record: Mus musculus; assay: Antifibrotic activity against bleomycin-induced C57BL/6 mouse lung fibrosis model assessed as reduction in F4/80+CD11b+ macrophage in lung at high dose incubated for 30 mins by flow cytometry analysis ( Rvb = 17.96%); format: functional; design: scale not given: the % may be the effect or the level left; settings: 0.5 h
[8] = Toxicity in C57BL/6 mouse assessed as kidney lesion at 60 mg/kg, ip by H and E staining based analysis; format: organism-based; settings: in vivo
Mus musculus [9] = species on record: Mus musculus; assay: Antifibrotic activity against bleomycin-induced C57BL/6 mouse lung fibrosis model assessed as reduction in CD4-CD69+ T cell in lung at high dose incubated for 30 mins by flow cytometry analysis ( Rvb = 6.54%); format: functional; design: scale not given: the % may be the effect or the level left; settings: 0.5 h
Mus musculus [10] = assay: Antifibrotic activity against bleomycin-induced C57BL/6 mouse lung fibrosis model assessed as reduction in STAT3 phosphorylation at Ty705 residue in lung at 60 mg/kg, ip by immunohistochemical staining based analysis; format: functional, organism-based
A549 [11] = assay: Antiproliferative activity against TGFbeta-induced human A549 cells assessed as reduction in cell viability at 200 nM incubated for 72 hrs by CCK-8 assay; format: functional
NIH3T3 [12] = assay: Antiproliferative activity against mouse NIH3T3 cells assessed as cell growth inhibition incubated for 72 hrs by CCK-8 assay; format: functional, cell-based; settings: dose 6.25-100 nM
A549 [13] = assay: Inhibition of epithelial-mesenchymal transition in human A549 cells assessed as effect on alpha-SMA by measuring fluorescence intensity measured for 24 hrs by immunofluorescence assays; format: functional, cell-based
A549 [14] = assay: Inhibition of epithelial-mesenchymal transition in TGF-beta1-induced human A549 cells assessed as effect on alpha-SMA by measuring fluorescence intensity at 200 nM incubated for 24 hrs by immunofluorescence assays; format: functional, cell-based
Mus musculus [15] = species on record: Mus musculus; assay: Antifibrotic activity against bleomycin-induced C57BL/6 mouse lung fibrosis model assessed as reduction in CD11c+MHC II+ in dendritic cells incubated for 30 mins by flow cytometry analysis; format: functional, organism-based
NIH3T3 [16] = assay: Inhibition of colony formation in mouse NIH3T3 cells assessed as inhibition of cell proliferation incubated for 2 weeks by crystal violet staining based microscopic analysis; format: functional; settings: dose <= 100.0 nM
A549 [17] = assay: Inhibition of epithelial-mesenchymal transition in human A549 cells assessed as effect on E-cadherin by measuring fluorescence intensity measured for 24 hrs by immunofluorescence assays; format: functional, cell-based
[18] = target: Signal transducer and activator of transcription 3 (Homo sapiens) (UniProt P40763); assay: Binding affinity to STAT3 in human A549 cells assessed as reduction in protein degradation; format: cell-based
Sequence of Signal transducer and activator of transcription 3 (Homo sapiens) (P40763 whole entry): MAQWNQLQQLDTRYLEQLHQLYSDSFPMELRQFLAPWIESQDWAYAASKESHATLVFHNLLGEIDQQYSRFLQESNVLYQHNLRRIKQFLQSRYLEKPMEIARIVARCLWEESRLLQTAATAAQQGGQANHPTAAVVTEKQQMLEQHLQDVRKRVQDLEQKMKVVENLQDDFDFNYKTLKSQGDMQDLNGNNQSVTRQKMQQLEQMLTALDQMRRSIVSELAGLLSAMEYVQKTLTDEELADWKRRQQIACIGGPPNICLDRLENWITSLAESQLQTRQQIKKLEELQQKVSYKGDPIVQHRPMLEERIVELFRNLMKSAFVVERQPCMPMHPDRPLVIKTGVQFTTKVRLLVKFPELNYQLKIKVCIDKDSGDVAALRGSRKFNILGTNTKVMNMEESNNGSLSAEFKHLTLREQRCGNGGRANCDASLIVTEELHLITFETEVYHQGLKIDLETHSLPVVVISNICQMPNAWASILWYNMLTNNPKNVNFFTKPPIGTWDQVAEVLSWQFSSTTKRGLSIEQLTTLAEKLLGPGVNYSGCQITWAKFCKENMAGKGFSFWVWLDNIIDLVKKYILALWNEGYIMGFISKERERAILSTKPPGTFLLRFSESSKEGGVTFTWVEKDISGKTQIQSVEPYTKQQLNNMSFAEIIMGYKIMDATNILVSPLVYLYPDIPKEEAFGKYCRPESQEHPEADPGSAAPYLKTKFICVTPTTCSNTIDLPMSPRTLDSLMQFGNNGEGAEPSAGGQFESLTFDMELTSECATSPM

Mus musculus [19] = assay: Antifibrotic activity against bleomycin-induced C57BL/6 mouse lung fibrosis model assessed as inhibition of hydroxyproline content in lung at 60 mg/kg, ip administered for 7 to 14 days; format: functional, organism-based; settings: time 7-14 day
[20] = target: Signal transducer and activator of transcription 3 (Mus musculus) (UniProt P42227); assay: Binding affinity to STAT3 in mouse NIH3T3 cells assessed as reduction in protein degradation; format: cell-based
Sequence of Signal transducer and activator of transcription 3 (Mus musculus) (P42227 whole entry): as the sequence (P40763 whole entry) above, with E760D counted along it

NIH3T3 [21] = assay: Antifibrotic activity in TGF-beta1-induced mouse NIH3T3 cells assessed as inhibition of alpha-SMA expression at 50 nM incubated for 24 hrs by Western blot analysis; format: functional, cell-based
Mus musculus [22] = assay: Antifibrotic activity against bleomycin-induced pulmonary fibrosis C57BL/6 mouse model assessed as increase in inter-alveolar space at 60 mg/kg, ip administered for 20 days and measured on 21 day; format: functional, organism-based
[23] = Toxicity in C57BL/6 mouse assessed as liver lesion at 60 mg/kg, ip by H and E staining based analysis; format: organism-based; settings: in vivo
Mus musculus [24] = species on record: Mus musculus; assay: Antifibrotic activity against bleomycin-induced C57BL/6 mouse lung fibrosis model assessed as reduction in F4/80+CD11b+ macrophage incubated for 30 mins by flow cytometry analysis; format: functional, organism-based
Mus musculus [25] = assay: Antifibrotic activity against bleomycin-induced C57BL/6 mouse lung fibrosis model assessed as inhibition of hydroxyproline content in lung at 60 mg/kg, ip; format: functional, organism-based
Mus musculus [26] = species on record: Mus musculus; assay: Antifibrotic activity against bleomycin-induced C57BL/6 mouse lung fibrosis model assessed as reduction in CD4-CD69+ T cell incubated for 30 mins by flow cytometry analysis; format: functional, organism-based
Mus musculus [27] = species on record: Mus musculus; assay: Antifibrotic activity against bleomycin-induced C57BL/6 mouse lung fibrosis model assessed as reduction in F4/80+CD11b+ macrophage in lung at low dose incubated for 30 mins by flow cytometry analysis ( Rvb = 17.96%); format: functional; design: scale not given: the % may be the effect or the level left; settings: 0.5 h
A549 [28] = assay: Inhibition of cell migration in TGF-beta1 induced human A549 cells measured for 24 hrs by contrast-phase microscopic analysis; format: functional, cell-based
NIH3T3 [29] = assay: Antiproliferative activity against mouse NIH3T3 cells assessed as cell growth inhibition incubated for 24 to 72 hrs by CCK-8 assay; format: functional, cell-based
Mus musculus [30] = species on record: Mus musculus; assay: Antifibrotic activity against bleomycin-induced C57BL/6 mouse lung fibrosis model assessed as reduction in CD11c+MHC II+ in dendritic cells in lung at low dose incubated for 30 mins by flow cytometry analysis ( Rvb = 23.67 %); format: functional; design: scale not given: the % may be the effect or the level left; settings: 0.5 h
Mus musculus [31] = assay: Antifibrotic activity against bleomycin-induced C57BL/6 mouse lung fibrosis model assessed as prevention of belomycin-induced collagen-1 expression in lung at 60 mg/kg, ip by immunohistochemical staining based analysis; format: functional, organism-based
[32] = Toxicity in C57BL/6 mouse assessed as spleen lesion at 60 mg/kg, ip by H and E staining based analysis; format: organism-based; settings: in vivo
[33] = Toxicity in C57BL/6 mouse assessed as heart lesion at 60 mg/kg, ip by H and E staining based analysis; format: organism-based; settings: in vivo
NIH3T3 [34] = assay: Antiproliferative activity against TGFbeta-induced mouse NIH3T3 cells assessed as cell viability at 6.25 to 100 nM incubated for 24 to 72 hrs by CCK-8 assay; format: functional, cell-based; settings: dose 6.25-100 nM, time 24-72 hrs
A549 [35] = assay: Antiproliferative activity against TGFbeta-induced human A549 cells assessed as reduction in cell viability incubated for 72 hrs by CCK-8 assay; format: functional, cell-based; settings: dose 25-400 nM
Mus musculus [36] = assay: Antifibrotic activity against bleomycin-induced C57BL/6 mouse lung fibrosis model assessed as prevention of belomycin-induced alpha-SMA expression in lung at 60 mg/kg, ip by immunohistochemical staining based analysis; format: functional, organism-based
NIH3T3 [37] = assay: Antifibrotic activity in TGF-beta1-induced mouse NIH3T3 cells assessed as inhibition of STAT3 phosphorylation at 50 nM incubated for 24 hrs by Western blot analysis; format: functional, cell-based

O=C(C1=Cc2ccccc2S1(=O)=O)N1CCN(Cc2cc(F)c(F)cc2F)CC1
6.93%: Activity (Mus musculus [27])
Non-Toxic: Activity [8] | Activity [23] | Activity [32] | Activity [33]
2.84%: Activity (Mus musculus [9])
50%: Activity (A549 [11])
6.33: pIC50 (NIH3T3 [29])
9.28%: Activity (Mus musculus [5])
0.65%: Activity (Mus musculus [2])
active: Activity (Mus musculus [1]) | inhibition (A549 [3]) | Activity (NIH3T3 [4]) | Activity (A549 [6]) | Activity (Mus musculus [10]) | Activity (NIH3T3 [12]) Dose-Dependent Effect | inhibition (A549 [13]) | inhibition (A549 [14]) | Activity (Mus musculus [15]) | inhibition (NIH3T3 [16]) Dose-Dependent Effect | inhibition (A549 [17]) | Activity [18] | Activity (Mus musculus [19]) | Activity [20] | Activity (NIH3T3 [21]) | Activity (Mus musculus [22]) | Activity (Mus musculus [24]) | Activity (Mus musculus [25]) | Activity (Mus musculus [26]) | inhibition (A549 [28]) | Activity (Mus musculus [31]) | Activity (NIH3T3 [34]) | Activity (A549 [35]) Dose-Dependent Effect | Activity (Mus musculus [36]) | Activity (NIH3T3 [37])
10.45%: Activity (Mus musculus [7])
12.37%: Activity (Mus musculus [30])
